Experimental data published in patent publication US20050124794A1, “Cell surface tropomyosin as a target of angiogenesis inhibition” (priority 2002, published 2005).
One block for each compound: values may come before it. Numbered stars: 1 amine (or outer) side, 2 acyl side, 3 side chain; on linkers, the order of the positions; unused ones are H or OH. Square brackets hold non-standard residues; d marks the D form. Ends that are not written are not given here. Peptide text beside a SMILES is read from it. * marks the point of attachment. X3 = O=C([C@H](Cc1c[nH]cn1)N(Cc1ccc(Cl)cc1)[*:1])[*:2]; Fmoc = O=C(OCC1c2ccccc2-c2ccccc21)*

What was measured:
chicken gizzard Tpm = molecular target: T1, chicken gizzard Tpm (Gallus gallus, UniProt P19352); experiment: Binding to immobilized Tpm in a 96 well plate (biotin-HKa competition or direct binding); settings: 10 μM ZnCl2; for binding to immobilized Tpm / displacement of biotin-HKa (in words): 10 nM biotin-HKa, 200 ng chicken gizzard Tpm; for IC50: displacement of 10 nM biotinylated-HKa
T1 construct: purchased Sigma; host or cells: chicken gizzard (tissue-derived, as the name says)
Experimental: Plates are coated at room temperature with chicken gizzard Tpm (Sigma) in Tris buffer-saline (TBS) (200 ng/well). After incubation for 2 hours, wells are washed with TBS, then 1% BSA/TBS/Tween-20 is added to each well and incubate at 37° C. for two hours. HKa (Enzyme Laboratories) that had been previously biotinylated with EZ-Link (Pierce) according to the manufacturers instructions, is added to the plate at a concentration of 10 nM together with ZnCl2 (10 μM) and the appropriate concentration of the protein, domain or peptide competitor. The plates are incubated at room temperature and then washed with TBS/Tween-20. Avidin-HRP is added, incubated for 20 minutes at room temperature, washed with TBS/Tween-20 and the chromogenic substrate is added. The reaction is stopped with sulfuric acid and the plate read at 490 nm.
(§1) The IC50 for the displacement of biotinylated-HKa for the peptides shown in Table 5 was determined as follows: 10 nM biotin-HKa is added to a 96 well plate previously coated with 200 ng of chicken gizzard Tpm in the presence of 10 μM ZnCl2. Increasing amounts of the peptides are added to the wells. The remaining biotin-HKa bound to Tpm was detected using avidin-HRP and a chromogenic substrate. A Kd was determined by non-linear regression analysis of the empirical data. The effect on the Matrigel Plug assay was determined as follows: Matrigel (0.5 mL) containing 400 ng/ml of bFGF, 50 μg/ml heparin with or without the peptide (300 μM) or saline buffer are injected in the flanks of a mouse. After five days, the plugs are removed and the plugs scanned.
The N-terminus of the pentapeptide HHPHG has been derivatized (capped) in an attempt to increase the pentapeptides' affinity to Tpm by increasing productive molecular contacts (or interactions). […] The IC50 for the displacement of biotinylated-HKa for the capped peptides shown in the table was determined as follows: 10 nM biotin-HKa was added to a 96 well plate previously coated with 200 ng of chicken gizzard Tpm in the presence of 10 μM ZnCl2. Increasing amounts of the peptides were added to the wells. The remaining biotin-HKa bound to Tpm was detected using avidin-HRP and a chromogenic substrate. A Kd was determined by non-linear regression analysis of the empirical data

MatLyLu cells = experiment: Matrigel/MatLyLu model (Matrigel plug with tumor cells); assay type: in vivo; settings: 700 μM ATN230 or 900 μM ATN294, 2×10^6 MatLyLu cells in mouse flank, seven days
Excerpt: In this assay, tumor cells, for example 1-5×10^6 cells of the 3LL Lewis lung carcinoma or the rat prostate cell line MatLyLu, are mixed with Matrigel® and then injected into the flank of a mouse following the protocol described in Sec. B., above. A mass of tumor cells and a powerful angiogenic response can be observed in the plugs after about 5 to 7 days. The anti-tumor and anti-angiogenic action of a compound in an actual tumor environment can be evaluated by including it in the plug. Measurement is then made of tumor weight, Hb levels or fluorescence levels (of a dextran-fluorophore conjugate injected prior to sacrifice). To measure Hb or fluorescence, the plugs are first homogenize with a tissue homogenizer.

[1] = molecular target: T2, D5 domain of human kininogen, HKa (Homo sapiens, UniProt P01042); experiment: Binding to HKa D5 (affinity column)
T2 construct: made in house
T2 sequence (P01042 402-526): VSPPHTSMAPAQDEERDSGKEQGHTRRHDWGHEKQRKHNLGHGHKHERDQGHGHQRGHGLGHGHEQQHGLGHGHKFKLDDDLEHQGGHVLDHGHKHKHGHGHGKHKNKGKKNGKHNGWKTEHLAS
Experimental: Chicken gizzard Tpm was partially digested with Chymotrypsin as described for FIG. 19 for 100 minutes so that a 20 kDa fragment was enriched. HK-D5 had previously immobilized in an activated Sepharose (CNBr-activated Sepharose 4 B, Amersham Biosciences). The chymotryptic fragments were incubated with the HK-D5-Sepharose resin in TBS containing 10 μM ZnCl2, washed extensively in the same buffer and eluted in 2 M NaCl. The samples were run in a 10% NuPage gel (Invitrogen).
The present inventors discovered the AALBP by passing a chymotryptic digest of cTPM1 over an affinity column comprising an antiangiogenic polypeptide, specifically, the D5 domain of human kininogen, HKa. Material that bound to the column was subjected to N-terminal sequencing. The sequence was determined to be SESVKEAQE, corresponding to residues 61-69 of cTPM1 (SEQ ID NO: 1) and residues 1-9 of SEQ ID NO:2.
The fragment was partially purified by passing the chymotryptic digest through an affinity column of Sepharose-HKa-D5. The column was extensively washed and eluted with high salt buffer. The resulting material was run on an SDS gel which appears in (FIG. 20). […]

[2] = tested on: bFGF-induced angiogenesis; experiment: Matrigel plug assay (bFGF-induced angiogenesis); assay type: in vivo, mouse; settings: 400 ng/ml bFGF, five days, plugs scanned; for Inhibits Angiogenesis (Matrigel ® assay): peptide 300 μM, 50 μg/ml heparin
Experimental: This assay is performed essentially as described by Passaniti et al. (Lab Invest. 67:519-528 (1992). Ice-cold Matrigel® (e.g., 500 μL) (Collaborative Biomedical Products, Inc., Bedford, Mass.) is mixed with heparin (e.g., 50 μg/ml), FGF-2 (e.g., 400 ng/ml) and the compound to be tested. In some assays, bFGF may be substituted with tumor cells as the angiogenic stimulus. The Matrigel® mixture is injected subcutaneously into 4-8 week-old athymic nude mice at sites near the abdominal midline, preferably 3 injections per mouse. The injected Matrigel® forms a palpable solid gel. Injection sites are chosen such that each animal receives a positive control plug (such as FGF-2+heparin), a negative control plug (e.g., buffer+heparin) and a plug that includes the compound being tested for its effect on angiogenesis, e.g., (FGF-2+heparin+compound). All treatments are preferably run in triplicate. Animals are sacrificed by cervical dislocation at about 7 days post injection or another time that may be optimal for observing angiogenesis. The mouse skin is detached along the abdominal midline, and the Matrigel® plugs are recovered and scanned immediately at high resolution. Plugs are then dispersed in water and incubated at 37° C. overnight. Hemoglobin (Hb) levels are determined using Drabkin's solution (e.g., obtained from Sigma) according to the manufacturers' instructions. The amount of Hb in the plug is an indirect measure of angiogenesis as it reflects the amount of blood in the sample. In addition, or alternatively, animals may be injected prior to sacrifice with a 0.1 ml buffer (preferably PBS) containing a high molecular weight dextran to which is conjugated a fluorophore. The amount of fluorescence in the dispersed plug, determined fluorimetrically, also serves as a measure of angiogenesis in the plug. Staining with mAb anti-CD31 (CD31 is “platelet-EC adhesion molecule or PECAM”) may also be used to confirm neovessel formation and microvessel density in the plugs.
as §1
These cyclic peptides were also tested for their ability to inhibit bFGF-induced angiogenesis in vivo in a Matrigel plug assay. Matrigel (0.5 mL) containing 400 ng/ml of bFGF, 50 μg/ml heparin with or without 10 μM peptide (ATN-310, ATN-311 or ATN-312 or saline buffer for the controls, was injected subcutaneously in the hind flanks of a mouse as described above. All the treatments were done in triplicate. After five days, the vascularization of the Matrigel plug was determined fluorometrically after i.v. injection of 100 μl of dextran conjugated with fluorescein isothiocyanate (FITC-dextran; MW 250,000, Sigma). Five days after injection, the plugs were removed and subjected to mincing of tissue which releases vascular FITC-dextran into the supernatant. Samples of supernatant were subjected to fluorimetry as a measure of vascularity of the plug. The amount of vasculature (neovessels) is directly proportional to the fluorescent signal which reflects the total vascular blood volume of the plug. The results are shown in Table 7, below and expressed as arbitrary fluorescence units or as % inhibition relative to the negative control.

[3] = Table 6, N-capped HHPHG peptides

T1 sequence (P19352 1-284 isoform P19352-2): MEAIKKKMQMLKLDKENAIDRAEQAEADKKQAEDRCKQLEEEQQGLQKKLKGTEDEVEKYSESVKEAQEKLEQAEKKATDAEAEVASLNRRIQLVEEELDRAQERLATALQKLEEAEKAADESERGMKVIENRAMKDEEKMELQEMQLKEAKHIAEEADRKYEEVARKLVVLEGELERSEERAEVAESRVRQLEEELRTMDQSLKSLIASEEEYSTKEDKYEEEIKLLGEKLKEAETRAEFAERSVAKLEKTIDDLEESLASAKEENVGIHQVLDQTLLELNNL
T1 sequence (P04268 1-284 isoform P04268-2 F73S/I172L/T199L/N203E/L204A partner): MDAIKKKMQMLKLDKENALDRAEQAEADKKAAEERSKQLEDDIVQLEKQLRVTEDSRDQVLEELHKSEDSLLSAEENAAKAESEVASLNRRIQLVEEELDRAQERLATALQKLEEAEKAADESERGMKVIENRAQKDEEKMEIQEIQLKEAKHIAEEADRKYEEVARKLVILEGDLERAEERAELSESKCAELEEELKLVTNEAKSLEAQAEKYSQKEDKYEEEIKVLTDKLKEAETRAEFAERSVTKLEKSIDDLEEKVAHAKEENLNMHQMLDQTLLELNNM

binding to immobilized Tpm / displacement of biotin-HKa (in words) (chicken gizzard Tpm): abolished
Compound: AHPHG [ATN294]
inhibition of MatLyLu growth, plug weight (in words) (MatLyLu cells): not | inhibition of MatLyLu growth, plug weight (in words) (MatLyLu cells; listed as AHPHG): significantly less anti-tumor activity

IC50 (chicken gizzard Tpm; Table 5): > 10000 µM
Compound: PPPHG [ATN227, PPPHG]

IC50 (chicken gizzard Tpm; [3]): 55 µM
Compound: O=C(O)CNC(=O)[C@H](Cc1c[nH]cn1)NC(=O)[C@@H]1CCCN1C(=O)[C@H](Cc1c[nH]cn1)NC(=O)[C@H](Cc1c[nH]cn1)NC(=O)OCC1c2ccccc2-c2ccccc21 [ATN-278.000.01, Fmoc] (Fmoc-HHPHG-OH; C-terminus assumed)

binding to HKa D5 (in words) [1]: binds
Compound: SEQ ID NO:2: chymotryptic fragment, residues 61-214 of chicken gizzard cTPM1, about 17 kDa

IC50 (chicken gizzard Tpm; Table 5): > 10000 µM
Compound: Ac-HHPHG-NH2 [ATN239, c-HHPHG-c]

IC50 (chicken gizzard Tpm; [3]): 23 µM
Compound: O=C(O)CNC(=O)[C@H](Cc1c[nH]cn1)NC(=O)[C@@H]1CCCN1C(=O)[C@H](Cc1c[nH]cn1)NC(=O)[C@H](Cc1c[nH]cn1)NCc1ccc(Cl)cc1 [ATN-276.000.01, 4-Chlorobenzyl] (H-[X3]HPHG-OH)

IC50 (chicken gizzard Tpm; Table 5): > 10000 µM
Compound: APPHG [ATN246, APPHG]

IC50 (chicken gizzard Tpm; Table 5): 99.5 µM
Compound: HKNKGKKN [ATN16, HKNKGKKN]
Inhibits Angiogenesis (Matrigel ® assay) [2]: Yes

binding to immobilized Tpm / displacement of biotin-HKa (in words) (chicken gizzard Tpm): bound
Compound: HPPHG [ATN228, HPPHG]
inhibition of angiogenesis in the Matrigel plug model (in words) ([2]; 20 μg peptide): inhibited angiogenesis | Inhibits Angiogenesis (Matrigel ® assay) [2]: Yes

IC50 (chicken gizzard Tpm; Table 5): > 10000 µM
Compound: Ac-HPPHG-NH2 [ATN231, c-HPPHG-c]

IC50 (chicken gizzard Tpm; Table 5): 140 µM
Compound: TRRHDWGH [ATN232, TRRHDWGH]
Inhibits Angiogenesis (Matrigel ® assay) [2]: Yes

IC50 (chicken gizzard Tpm; Table 5): > 10000 µM
Compound: Ac-PPPHG-NH2 [ATN229, c-PPPHG-c]

IC50 (chicken gizzard Tpm; Table 5): > 10000 µM
Compound: Ac-HHPHG [ATN269, c-HHPHG]

Compound: HHPHG [ATN230, HHPHG]
inhibition of MatLyLu growth, plug weight (in words) (MatLyLu cells): inhibited MatLyLu growth | inhibition of MatLyLu growth, plug weight (in words) (MatLyLu cells; listed as HHPHG): anti-tumor activity | Inhibits Angiogenesis (Matrigel ® assay) [2]: Yes | Inhibits Angiogenesis (Matrigel ® assay) ([2]; listed as HHPHG): substantial activity
